We go through one compound from article PMC6115456, “PI3Ka-Akt1-mediated Prdm4 induction in adipose tissue increases energy expenditure, inhibits weight gain, and improves insulin resistance in diet-induced obese mice” (Cell Death & Disease, 2018).

Each structure is given as a SMILES string.

In this assay the target is T1, PI3Kα (class I catalytic subunit p110α) (Homo sapiens, UniProt P42336).
T1 construct: gene PIK3CA
The assay is described as follows: PI3K ADP-Glo kinase assay (Promega) on purified PI3Kα; also […] inhibition at […] in a recombinant kinase panel. The assay is classed as biochemical. In general terms: ADP-Glo turns the ADP formed in a reaction into a luminescent signal.

T1 sequence (P42336 whole entry): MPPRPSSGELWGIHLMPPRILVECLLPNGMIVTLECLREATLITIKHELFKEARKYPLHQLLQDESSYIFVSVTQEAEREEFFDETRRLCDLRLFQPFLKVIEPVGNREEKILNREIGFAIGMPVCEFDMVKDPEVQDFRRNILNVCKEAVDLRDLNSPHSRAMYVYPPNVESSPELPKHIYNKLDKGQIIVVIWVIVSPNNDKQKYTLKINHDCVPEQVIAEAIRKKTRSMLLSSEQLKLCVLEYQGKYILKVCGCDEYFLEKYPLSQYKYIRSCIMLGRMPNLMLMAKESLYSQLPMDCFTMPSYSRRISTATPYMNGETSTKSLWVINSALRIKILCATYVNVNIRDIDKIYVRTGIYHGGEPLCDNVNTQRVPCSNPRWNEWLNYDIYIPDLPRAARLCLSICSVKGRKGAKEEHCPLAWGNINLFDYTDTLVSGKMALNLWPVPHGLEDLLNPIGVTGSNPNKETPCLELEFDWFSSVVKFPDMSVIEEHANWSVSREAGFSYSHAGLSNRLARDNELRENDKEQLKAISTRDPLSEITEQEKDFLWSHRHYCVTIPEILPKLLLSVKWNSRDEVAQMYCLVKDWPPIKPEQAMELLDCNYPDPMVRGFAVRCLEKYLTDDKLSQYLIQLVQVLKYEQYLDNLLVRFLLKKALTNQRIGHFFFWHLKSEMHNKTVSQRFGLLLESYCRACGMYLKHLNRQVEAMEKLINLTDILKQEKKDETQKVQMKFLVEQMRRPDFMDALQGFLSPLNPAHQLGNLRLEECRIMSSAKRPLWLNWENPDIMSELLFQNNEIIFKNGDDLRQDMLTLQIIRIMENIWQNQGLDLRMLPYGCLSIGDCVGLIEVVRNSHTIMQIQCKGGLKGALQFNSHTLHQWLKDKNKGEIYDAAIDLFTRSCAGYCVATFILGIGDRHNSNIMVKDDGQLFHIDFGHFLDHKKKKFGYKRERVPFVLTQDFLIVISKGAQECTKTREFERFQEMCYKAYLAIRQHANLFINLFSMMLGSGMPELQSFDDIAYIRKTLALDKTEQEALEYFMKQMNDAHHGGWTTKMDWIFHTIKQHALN
T1 sequence (P27986 2-724 partner): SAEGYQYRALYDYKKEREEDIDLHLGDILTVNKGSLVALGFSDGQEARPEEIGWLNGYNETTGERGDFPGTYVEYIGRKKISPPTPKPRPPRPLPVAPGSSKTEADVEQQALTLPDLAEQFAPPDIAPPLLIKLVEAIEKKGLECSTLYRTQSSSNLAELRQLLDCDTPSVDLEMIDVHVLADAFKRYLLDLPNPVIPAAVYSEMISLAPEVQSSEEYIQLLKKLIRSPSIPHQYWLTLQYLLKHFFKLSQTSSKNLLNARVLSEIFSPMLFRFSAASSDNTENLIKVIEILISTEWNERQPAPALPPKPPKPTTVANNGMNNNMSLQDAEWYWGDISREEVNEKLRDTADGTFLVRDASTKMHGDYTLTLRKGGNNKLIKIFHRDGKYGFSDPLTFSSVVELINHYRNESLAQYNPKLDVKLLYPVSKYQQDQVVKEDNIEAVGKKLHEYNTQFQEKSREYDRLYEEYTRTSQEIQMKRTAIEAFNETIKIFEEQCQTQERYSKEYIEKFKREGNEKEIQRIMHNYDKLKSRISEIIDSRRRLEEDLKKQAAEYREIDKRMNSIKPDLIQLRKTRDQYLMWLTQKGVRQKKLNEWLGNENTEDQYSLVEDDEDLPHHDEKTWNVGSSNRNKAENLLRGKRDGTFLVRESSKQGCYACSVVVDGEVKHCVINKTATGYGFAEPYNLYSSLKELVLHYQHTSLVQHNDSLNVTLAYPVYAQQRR

As for `O=C(/C=C/c1ccc(O)c(O)c1)c1ccc(O)cc1O` [butein], the IC50 (usually the point on the concentration scale where inhibition reaches its midpoint) came out at 6.4 µM.
